System: human intestinal microsomes
Test: Reduction in the intestinal barrier effect: simvastatin remaining after incubation with human intestinal microsomes
Conditions: 12 μmol, 1 mg/ml microsomes, 37° C.
Method: The test is carried out in vitro using human intestinal microsomes containing:
0.09 nmol/mg of cytochromes P450,
0.77 nmol/min/mg of cytochromes P450 3 A 4.
1 mg/ml of microsomes is then placed in contact:
with a regenerating system having the following composition:
followed by equilibration at 37° C. for 3 minutes.
100 μl aliquots are mixed with a solution of 400 μl of a 50/50 mixture of ice and acetonitrile at 0, 15, 30, 60, 120 and 180 minutes. Testosterone is tested in parallel as control component.
The conditions for carrying out the HPLC are as follows:
The mass spectrometer used is known under the reference PE SCIEX 150.

For C[C@]12CC[C@H]3[C@@H](CCC4=CC(=O)CC[C@@]43C)[C@@H]1CC[C@@H]2O [TESTOSTERONE, Testosterone], the “PERCENTAGE REMAINING” value (time 0 min) was 100%, the “PERCENTAGE REMAINING” value (time 15 min) was “completely disappeared” and the “PERCENTAGE REMAINING” value (time 180 min) was 0%.
